The nature of data set [1]: Human microsome stability assay. It counts as in vitro ADME. The note with it: for Clearance of Human microsome: 1 μM test compound, 0.5 mg/mL liver microsomal protein, 37° C., pH 7.4; for human liver microsome stability (in words): qualitative statement. The method, then:
The human microsomal stability assay is used for early assessment of metabolic stability of a test compound in human liver microsomes.
Human liver microsomes (Cat. NO.: 452117, Corning, USA; Cat. NO.: H2610, Xenotech, USA) were preincubated with test compound for 10 minutes at 37° C. in 100 mM potassium phosphate buffer, pH 7.4. The reactions were initiated by adding NADPH regenerating system. The final incubation mixtures contained 1 μM test compound, 0.5 mg/mL liver microsomal protein, 1 mM MgCl2, 1 mM NADP, 1 unit/mL isocitric dehydrogenase and 6 mM isocitric acid in 100 mM potassium phosphate buffer, pH 7.4. After incubation times of 0, 3, 6, 9, 15 and 30 minutes at 37° C., 300 μL of cold acetonitrile (including internal standard) was added to 100 μL incubation mixture to terminate the reaction. Following precipitation and centrifugation, the amount of compound remaining in the samples were determined by LC-MS/MS. Controls of no NADPH regenerating system at zero and 30 minutes were also prepared and analyzed.
A general note: Microsomes from liver hold many membrane-bound enzymes, among them those of drug oxidation.

The target of data set [2] is T1, TLR9 (Homo sapiens, UniProt Q9NR96).
T1 sequence (Q9NR96 26-1032): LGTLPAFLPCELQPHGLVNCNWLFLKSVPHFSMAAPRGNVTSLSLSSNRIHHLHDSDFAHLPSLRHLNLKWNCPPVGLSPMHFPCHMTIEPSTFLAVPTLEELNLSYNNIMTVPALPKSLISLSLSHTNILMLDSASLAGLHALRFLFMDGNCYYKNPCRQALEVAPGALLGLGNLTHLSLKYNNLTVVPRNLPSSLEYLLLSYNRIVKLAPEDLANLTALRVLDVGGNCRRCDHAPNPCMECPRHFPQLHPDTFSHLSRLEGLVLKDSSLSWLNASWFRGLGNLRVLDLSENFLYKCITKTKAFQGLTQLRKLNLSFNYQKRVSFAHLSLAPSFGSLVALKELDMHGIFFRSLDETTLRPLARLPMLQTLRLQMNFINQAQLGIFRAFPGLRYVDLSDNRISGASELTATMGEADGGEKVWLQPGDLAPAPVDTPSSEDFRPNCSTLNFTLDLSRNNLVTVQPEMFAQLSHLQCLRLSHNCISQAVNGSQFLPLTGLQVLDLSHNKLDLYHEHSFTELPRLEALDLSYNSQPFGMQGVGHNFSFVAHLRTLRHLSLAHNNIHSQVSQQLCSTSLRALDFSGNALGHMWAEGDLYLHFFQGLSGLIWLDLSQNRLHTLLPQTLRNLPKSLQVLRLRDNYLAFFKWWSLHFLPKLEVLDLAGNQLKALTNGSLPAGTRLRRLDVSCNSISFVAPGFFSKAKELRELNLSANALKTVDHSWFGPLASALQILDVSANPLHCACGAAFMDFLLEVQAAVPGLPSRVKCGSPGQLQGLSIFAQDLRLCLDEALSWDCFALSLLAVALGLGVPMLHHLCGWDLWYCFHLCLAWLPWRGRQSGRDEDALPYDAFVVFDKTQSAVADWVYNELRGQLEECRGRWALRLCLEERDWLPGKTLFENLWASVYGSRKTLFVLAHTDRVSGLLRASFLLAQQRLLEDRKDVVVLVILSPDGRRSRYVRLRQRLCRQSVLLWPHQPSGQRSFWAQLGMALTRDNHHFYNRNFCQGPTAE
The note with it: qualitative statement on compounds of WO2018047081; cited from earlier work.

The text below walks through data of patent US20240317735A1, “HYDROISOQUINOLINE OR HYDRONAPHTHYRIDINE COMPOUNDS FOR THE TREATMENT OF AUTOIMMUNE DISEASE” (Hoffmann-La Roche Inc., priority 2020, published 2024).

Molecules are shown by their SMILES.

With `C[C@H]1CN(c2ccnc3c2cnn3C)Cc2ccc(N3C[C@@H](N)[C@](C)(O)C3)cc21` [Example 36, (3R,4R)-4-amino-3-methyl-1-[(4R)-4-methyl-2-(1-methylpyrazolo[3,4-b]pyridin-4-yl)-3,4-dihydro-1H-isoquinolin-6-yl]pyrrolidin-3-ol], the “Clearance of Human microsome” value in data set [1] amounted to 6.2 mL/min/kg.

For `C[C@H]1CN(c2ccnc3c2cnn3C)Cc2ccc(N3CC[N+](C)(C)CC3)cc21.[Cl-]` [Example 39, (4R)-6-(4,4-dimethylpiperazin-4-ium-1-yl)-4-methyl-2-(1-methylpyrazolo[3,4-b]pyridin-4-yl)-3,4-dihydro-1H-isoquinoline chloride], the “Clearance of Human microsome” value in data set [1] is 6.2 mL/min/kg.

On to `Cc1cc(N2CCc3c(c(C)nn3CC34CCC(NC(=O)[C@@H]5COCCN5)(CC3)CC4)C2)c2cnn(C)c2n1` [Example N8, reference compound], for which, in data set [2], the “TLR9 activity (in words)” value is “much lower TLR9 activity”. In addition, in data set [1], the “Clearance of Human microsome” value is recorded as 16.3 mL/min/kg and the “human liver microsome stability (in words)” value is “poor human liver microsome stability”.

Turning to `Cc1cc(N2CCc3c(c(C)nn3CC34CCC(N(C)C5CCC5)(CC3)CC4)C2)c2cnn(C)c2n1` [Example N79, reference compound], the “TLR9 activity (in words)” value in data set [2] is recorded as “best TLR9 activity”. Moreover, in data set [1], the “Clearance of Human microsome” value was 18.2 mL/min/kg and the “human liver microsome stability (in words)” value was “poor human liver microsome stability”.
